In patent publication US20170254803A1, “METHOD FOR THE DETECTION OF ANTIGEN PRESENTATION” (Deutsches Krebsforschungszentrum Stiftung des öffentlichen …, priority 2014, published 2017):
Ends that are not written are not given here.

Experiments:
[1] = system: anti-IDH1R132H antibody (H09); assay: IDH1R132H and IDH1 wildtype peptide coated ELISA; type: binding, mouse; details: 10 μg peptide per well; H09 1:1000; OD at 450 nm (FIG. 1C)
Description: ELISA plates (Costar) were coated with IDH1R132H and IDH1wt p118-132, p120-134, p122-136, p124-138, p126-140, p128-142, p130-144, p132-146, p123-142 (10 μg per well in PBS), washed with PBS 0.05% Tween 20, and blocked with 3% FBS in PBS 0.05% Tween 20. As negative controls, MOG p35-55 was used at equal concentrations and peptide diluent PBS 10% DMSO was used at equal volume. As primary antibody monoclonal mouse anti-IDH1R132H (1:1000, H09, Dianova) was used. HRP-conjugated secondary antibody was sheep anti-mouse IgG (1:5000, Amersham). HLA-DRB1*01:01 MHC class II tetramer bound to IDH1R132H p123-142 and HLA-DRB1*01:01 MHC class II tetramer control tetramer bound to CLIP were kindly provided by NIH tetramer core facility and used 1:200 during pre-incubation with H09 for competitive ELISA. Substrate was TMB (ebioscience) and reaction was stopped with 1M H2SO4. OD at 450 nm was measured with an ELISA reader (Thermo Fisher).

[2] = target: HLA-DR in patients' glioma tissue; assay: cell-based or functional assay

| binding of anti-IDH1R132H antibody to coated peptide [1] | positivity in the IDH1R132H-MHC class II PLA system (glioma tissue, positivity set to 20 PLA signals per high power field) (of 9 IDH1R132H+ gliomas) [2] | Substance |
| --- | --- | --- |
| binds |  | GWVKPIIIGHHAYGDQYRAT (listed as Homo sapiens) [p123-p142] |
| binds |  | WVKPIIIGHHAYGDQ [WVKPIIIGHHAYGDQ] |

Second part, the substance before the results:

| Substance | binding of anti-IDH1R132H antibody to coated peptide [1] | positivity in the IDH1R132H-MHC class II PLA system (glioma tissue, positivity set to 20 PLA signals per high power field) (of 9 IDH1R132H+ gliomas) [2] |
| --- | --- | --- |
| IDH1R132H (endogenous, in human glioma tissue) (from UniProt O75874 2-414) |  | 5 |
| KPIIIGHHAYGDQYR [KPIIIGHHAYGDQYR] | binds |  |
| SGWVKPIIIGHHAYG [SGWVKPIIIGHHAYG] | binds |  |
